Data taken from patent publication US7084155B2, “Chemokine receptor binding heterocyclic compounds” (AnorMED, priority 2000, dated 2006).

Key:
Assay type in all cases: cell-based
HIV-1 BaL = experiment: Inhibition of HIV-1 BaL (CCR5 using) replication in PHA-stimulated PBMC's, viral p24 antigen expression; settings: Human immunodeficiency virus 1, BAL
HIV-1 NL4.3 or IIIB = experiment: Inhibition of HIV-1 (NL4.3 or IIIB, CXCR4 using) replication in MT-4 cells, MTT viability; settings: Human immunodeficiency virus 1, IIIB, MT4, concentration protecting 50% of virus-infected cells against viral cytopathicity
Summary of the method: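 MT-4 cells infected at MOI 0.01 (100 × CCID50) with test compound at various concentrations, cytotoxicity run in parallel on uninfected cells. Viable cells quantified by MTT colorimetry after 5 days of proliferation. EC50 is the concentration protecting 50% of infected cells from viral cytopathicity.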

[1] = test system: SDF-1 induced Ca flux in SUP-T1 cells; experiment: Inhibition of chemokine (SDF-1) induced Ca flux measured on a FLIPR; settings: Homo sapiens
Summary of the method: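 Fluo-3-loaded SUP-T1 cells (3×10^5 per well) preincubated with compound for 10 min at 37° C in HBSS/20 mM Hepes/0.2% BSA, pH 7.4, then stimulated with SDF-1. Fluorescence read on a FLIPR for 4 min after a 20-second baseline.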

EC50 (HIV-1 BaL) [µg/mL] | EC50 (HIV-1 NL4.3 or IIIB) [µg/mL] | Structure (SMILES) | inhibition at 20 µg/mL [1] [%]
< 20 | < 20 | c1ccc(CNCc2ccc(CN(CCNCc3nc4ccccc4[nH]3)C3CCCc4cccnc43)cc2)nc1 (stereo not drawn) [Example 67, N-(2-pyridinylmethyl)-N′-[2-[(1H-benzimidazol-2-ylmethyl)amino]ethyl]-N′-(5,6,7,8-tetrahydro-8-quinolinyl)-1,4-benzenedimethanamine] | > 20
< 20 | < 20 | O=[N+]([O-])c1ccc(-c2cnc(CN(Cc3ccc(CNCc4ccccn4)cc3)C3CCCc4cccnc43)[nH]2)cc1 (stereo not drawn) [Example 27, N-(2-pyridinylmethyl)-N′-[4-(4-nitrophenyl)-1H-imidazol-2-ylmethyl]-N′-(5,6,7,8-tetrahydro-8-quinolinyl)-1,4-benzenedimethanamine] | > 20
